Marks after values point to notes of the source that are not given here.
System: extracted Salmonella DNA
Experiment: DNA interaction Assay 1: treatment added to extracted DNA directly
Assay type: biochemical
Settings: 1 kg/T; one hour at room temperature; n = 3
Method: Method (Assay 1: Treatment added to extracted DNA directly). One mL of cell suspension (ca. 10^8 cfu/mL in TSBYE) was harvested by centrifugation at 5000 rcf for 10 minutes. The supernatant was discarded and resuspended as detailed in the protocol provided by the supplier. DNA was extracted using the QIAamp DNA Mini kit (Cat #51304, Qiagen). The samples were incubated at 56° C. for two hours and eluted with 200 uL of nuclease-free water. The same eluent was run through the column twice to increase the DNA concentration. Extracted DNA was quantified using Quant-iT dsDNA high-sensitivity assay kit (Q33120; Thermo Fischer Scientific). Extracted DNA was subsequently treated with the different treatment groups with a final concentration of 1 kg/T (prepared in 10 mM PBS). 1.5 uL of treatment solution (prepared at 10 times higher concentration) is added to 13.5 uL of extracted DNA. The solution was mixed well and left to stand at room temperature for one hour. After one hour, the solution was diluted with nuclease-free water 10 times. DNA was subsequently quantified using Quant-iT dsDNA high-sensitivity assay kit (Q33120; Thermo Fischer Scientific). Method (Assay 2: Treatment added to cells followed by extraction). […] Extracted DNA was quantified using Quant-iT dsDNA high-sensitivity assay kit (Q33120; Thermo Fischer Scientific). […]

## CCC(=O)OO [Perpropionic acid, perpropionic acid]
  DNA concentration, Average ± SD, Assay 1: 42.8 ± 2.9^b ng/uL
